This note sets out measurements from patent US9120745B2, “Triazole compounds that modualte HSP90 activity” (Synta Pharmaceuticals Corp., priority 2007, dated 2015).

One series deals with Her2. Briefly: Degradation of Her2 in BT-474 cells after treatment with compound (Western blot, Method 1). The class given is cell-based, human. The following applies: for IC50: treated overnight in DMEM. The method, then:
Human high-Her2 breast carcinoma BT474 (HTB-20), SK-BR-3 (HTB-30) and MCF-7 breast carcinoma (HTB-22) from American Type Culture Collection, VA, USA were grown in Dulbecco's modified Eagle's medium with 4 mM L-glutamine and antibiotics (100 IU/ml penicillin and 100 ug/ml streptomycine; GibcoBRL). To obtain exponential cell growth, cells were trypsinized, counted and seeded at a cell density of 0.5×10^6 cells/ml regularly, every 3 days. All experiments were performed on day 1 after cell passage.
BT-474 cells were treated with 0.5 μM, 2 μM, or 5 μM of 17AAG (a positive control) or 0.5 μM, 2 μM, or 5 μM of a compound of the invention overnight in DMEM medium. After treatment, each cytoplasmic sample was prepared from 1×10^6 cells by incubation of cell lysis buffer (#9803, cell Signaling Technology) on ice for 10 minutes. The resulting supernatant used as the cytosol fractions are dissolved with sample buffer for SDS-PAGE and run on a SDS-PAGE gel, blotted onto a nitrocellulose membrane by using semi-dry transfer. Non-specific binding to nitrocellulose was blocked with 5% skim milk in TBS with 0.5% Tween at room temperature for 1 hour, then probed with anti-Her2/ErB2 mAb (rabbit IgG, #2242, Cell Signaling) and anti-Tubulin (T9026, Sigma) as housekeeping control protein. HRP-conjugated goat anti-rabbit IgG (H+L) and HRP-conjugated horse anti-mouse IgG (H+L) were used as secondary Ab (#7074, #7076, Cell Signaling) and LumiGLO reagent, 20× Peroxide (#7003, Cell Signaling) was used for visualization.

For series [1], the system named is human multiple myeloma tumor cell line RPMI 8226. In words: SCID mouse xenograft model, human multiple myeloma tumor cell line RPMI 8226. It counts as in vivo. The following applies: RPMI 8226 xenograft in SCID mice. The protocol:
(§1) The human multiple myeloma cell line, RPMI 8226 (ATCC #CCL-155), and the canine osteosarcoma cell line, D-17 (ATCC #CCL-183), were obtained from the American Type Culture Collection (ATCC; Manassas, Va., USA). The cells were cultured in growth media prepared with RPMI Media 1640 (4.5 g/L glucose), 10% fetal bovine serum (FBS), 10 mM HEPES, 1% 100× Penicillin-Streptomycin, 1% 100× sodium pyruvate and 1% 100×MEM non-essential amino acids. FBS was obtained from ATCC and all other reagents were obtained from Invitrogen Corp. (Carlsbad, Calif., USA). Cells that had been cryopreserved in liquid nitrogen were rapidly thawed at 37° C. and transferred to a tissue culture flask containing growth media and then incubated at 37° C. in a 5% CO2 incubator. To expand the RPMI 8226 cell line, growth media was changed every 2-3 days and cultures were passaged 1:3 to 1:5 every 3-5 days. When the a 175 cm^2 flask reached approximately 20-40×10(6) total cells, the above passaging process was repeated until sufficient cells had been obtained for implantation into mice. […] The supernatant was aspirated and the cell pellet was resuspended in 10 mL of growth media and the cell number determined using a hemocytometer. […]
(§2) Tumors were then permitted to develop in vivo until the majority reached 75-250 mm^3 in tumor volume, which required ˜4 weeks following implantation for the RPMI 8226 model and ˜9 weeks for the D-17 model. […] Tumor volumes (V) were calculated by caliper measurement of the width (W), length (L) and thickness (T) of tumors using the following formula: V=0.5236×(L×W×T). Animals were randomized into treatment groups so that the average tumor volumes of each group were similar at the start of dosing. % T/C values, as a measure of efficacy, were determined as follows: • (i) If ΔT>0: % T/C=(ΔT/ΔC)×100 • (ii) If ΔT<0: % T/C=(ΔT/T0)×100 • (iii) ΔT=Change in average tumor volume between start of dosing and the end of study. • (iv) ΔC=Change in average tumor volume between start of dosing and the end of study. • (v) T0=Average tumor volume at start of dosing. […]
A general note: In xenograft studies the graft and the host belong to different species.

Series [2] concerns canine osteosarcoma tumor cell line D17. Briefly: SCID mouse xenograft model, canine osteosarcoma tumor cell line D17. The following applies: D17 xenograft in SCID mice. It counts as in vivo. The method, then:
as §1, §2

For the compound `CC(C)c1cc(-c2nnc(O)n2-c2ccc3c(c2)CCC3)c(O)cc1OP(=O)(O)O` [Compound 1, 4-(4-(2,3-dihydro-1H-inden-5-yl)-5-hydroxy-4H-1,2,4-triazol-3-yl)-5-hydroxy-2-isopropylphenyl dihydrogen phosphate], the IC50 (in general, the concentration that gives 50% inhibition) with Her2 amounted to 228 nM.

Regarding `CC(C)c1cc(-c2nnc(O)n2-c2ccc(N3CCOCC3)nc2)c(O)cc1OP(=O)(O)O` [Compound 2, 5-hydroxy-4-(5-hydroxy-4-(6-morpholinopyridin-3-yl)-4H-1,2,4-triazol-3-yl)-2-isopropylphenyl dihydrogen phosphate], the IC50 in the series on Her2 came to 90 nM.

As to `CC(C)c1cc(-c2nnc(O)n2-c2ccc3c(ccn3C)c2)c(O)cc1OP(=O)(O)O` [Compound 3, 5-hydroxy-4-(5-hydroxy-4-(1-methyl-1H-indol-5-yl)-4H-1,2,4-triazol-3-yl)-2-isopropylphenyl dihydrogen phosphate], the IC50 with Her2 was determined as 88 nM. Moreover, the overt toxicity entry in series [1] (100 mg/kg) and in series [2] (61 mg/kg) was “Overt toxicity was not observed” each time. The “% T/C value” in series [1] (100 mg/kg body weight i.v., day 46) is listed as 15%; in series [2] (61 mg/kg body weight i.v., day 83) it was 6%. Moreover, the “average bodyweight change relative to the start of the study” value in series [1] (100 mg/kg, day 46) was 2.1%; in series [2] (61 mg/kg, day 83) it was −0.2%.

Regarding `CC(C)c1cc(-c2nnc(O)n2-c2ccc3c(ccn3C)c2)c(O)cc1OP(=O)(O)O` [Compound 4, sodium 5-hydroxy-4-(5-hydroxy-4-(1-methyl-1H-indol-5-yl)-4H-1,2,4-triazol-3-yl)-2-isopropylphenyl phosphate], the IC50 in the series on Her2 (phosphate) was determined as 182 nM.

With `C=CCNC1=C2C[C@@H](C)C[C@H](OC)[C@H](O)[C@@H](C)/C=C(\C)[C@H](OC(N)=O)[C@@H](OC)/C=C\C=C(/C)C(=O)NC(=CC1=O)C2=O` [Compound 17AAG, 17-allylamino-17-demethoxygeldanamycin, reference compound], the “degradation of Her2” value in the series on Her2 (0.5 μM, positive control, results not shown) is reported as “partial degradation”.
